Assay [1] concerns Zymoseptoria tritici. In words: Fungicidal activity: leaf blotch of wheat (SEPTTR), wheat seedlings, booth sprayer to run-off or track spray. It counts as in vivo. The conditions noted are these: Low-Volume Cereal Activity at 121.5 g/H.
Assay [2] relates to Puccinia triticina. Put plainly: Fungicidal activity: wheat brown rust (PUCCRT), wheat seedlings, booth sprayer to run-off or track spray. The conditions noted are these: Low-Volume Cereal Activity at 121.5 g/H. Format: in vivo.
Setting [3] is: 24 h, 1 Day Protectant, read-out: SEPTTR 1DP.
[4] abbreviates: 72 h, 3 Day Curative, read-out: SEPTTR 3DC.
The mark [5] stands for this setting: 24 h, 1 Day Protectant, read-out: PUCCRT 1DP.
[6] abbreviates: 72 h, 3 Day Curative, read-out: PUCCRT 3DC.

Here are results for 30 compounds from patent publication US10173971B2, “Picolinamides with fungicidal activity” (DOW AGROSCIENCES LLC, priority 2014, dated 2019).

Where two headings read alike, the source gives them in different places.

On to `CCOCC(=O)OCOc1c(OC)ccnc1C(=O)N[C@@H](C)C(=O)O[C@@H](C)[C@@H](COCc1ccccc1)Cc1ccccc1` [compound 234], for which the pest or weed control at 121.5 g/ha in assay [1] (setting [3]) is 0 to 80%; in assay [1] (setting [4]) it was 80 to 100%; in assay [2] (setting [5]), 80 to 100%; in assay [2] (setting [6]), 80 to 100%.
As for `CCOCC(=O)OCOc1c(OC)ccnc1C(=O)N[C@@H](C)C(=O)O[C@@H](C)[C@H](Cc1ccc(F)cc1)C(C)(C)OCc1ccccc1` [compound 235], the pest or weed control at 121.5 g/ha lay in the range of 80 to 100% in assay [1] (setting [3]), 0 to 80% in assay [1] (setting [4]), 80 to 100% in assay [2] (setting [5]) and 0 to 80% in assay [2] (setting [6]).
For `CCOCC(=O)OCOc1c(OC)ccnc1C(=O)N[C@@H](C)C(=O)O[C@@H](C)[C@H](Cc1ccccc1)C(C)(C)OCc1ccccc1` [compound 236], the pest or weed control at 121.5 g/ha in assay [1] (setting [3]) lay within 80 to 100%; in assay [1] (setting [4]) it was 0 to 80%; in assay [2] (setting [5]), 80 to 100%; in assay [2] (setting [6]), 0 to 80%.
Consider `CCOCC(=O)OCOc1c(OC)ccnc1C(=O)N[C@@H](C)C(=O)O[C@@H](C)[C@@H](COC)Cc1ccc(F)cc1` [compound 237], for which the pest or weed control at 121.5 g/ha in assay [1] (setting [3]) lay in the range of 0 to 80%; in assay [1] (setting [4]) it was 0 to 80%; in assay [2] (setting [5]), 80 to 100%; in assay [2] (setting [6]) it was 80 to 100%.
For the compound `CCOCC(=O)OCOc1c(OC)ccnc1C(=O)N[C@@H](C)C(=O)O[C@@H](C)[C@H](Cc1ccc(F)cc1)C(C)(C)OC` [compound 238], the pest or weed control at 121.5 g/ha in assay [1] (setting [3]) fell in the range of 0 to 80%; in assay [1] (setting [4]), 0 to 80%; in assay [2] (setting [5]) it was 80 to 100%; in assay [2] (setting [6]) it was 0 to 80%.
Take `COc1ccnc(C(=O)N[C@@H](C)C(=O)O[C@@H](C)[C@@H](COCc2ccccc2)Cc2ccc(F)cc2)c1OCOC(C)=O` [compound 239]: the pest or weed control at 121.5 g/ha fell in the range of 80 to 100% in assay [1] (setting [3]), 0 to 80% in assay [1] (setting [4]), 80 to 100% in assay [2] (setting [5]) and 0 to 80% in assay [2] (setting [6]).
On to `COc1ccnc(C(=O)N[C@@H](C)C(=O)O[C@@H](C)[C@H](Cc2ccc(F)cc2)C(C)(C)OCc2ccccc2)c1OCOC(C)=O` [compound 241], for which the pest or weed control at 121.5 g/ha in assay [1] (setting [3]) lay in the range of 80 to 100%; in assay [1] (setting [4]) it was 80 to 100%; in assay [2] (setting [5]), 80 to 100%; in assay [2] (setting [6]) it was 0 to 80%.
`COC[C@@H](Cc1ccc(F)cc1)[C@H](C)OC(=O)[C@H](C)NC(=O)c1nccc(OC)c1OCOC(C)=O` [compound 243]: the pest or weed control at 121.5 g/ha lay in the range of 0 to 80% in assay [1] (setting [3]), 0 to 80% in assay [1] (setting [4]), 80 to 100% in assay [2] (setting [5]) and 80 to 100% in assay [2] (setting [6]).
As to `COc1ccnc(C(=O)N[C@@H](C)C(=O)O[C@@H](C)[C@H](Cc2ccc(F)cc2)C(C)(C)OC)c1OCOC(C)=O` [compound 244], the pest or weed control at 121.5 g/ha in assay [1] (setting [3]) was 0 to 80%; in assay [1] (setting [4]) it was 80 to 100%; in assay [2] (setting [5]) it was 80 to 100%; in assay [2] (setting [6]) it was 80 to 100%.
As to `COc1ccnc(C(=O)N[C@@H](C)C(=O)O[C@@H](C)[C@H](Cc2ccccc2)C(C)(C)OC)c1OCOC(C)=O` [compound 245], the pest or weed control at 121.5 g/ha in assay [1] (setting [4]) lay in the range of 0 to 80%; in assay [2] (setting [5]) it was 80 to 100%; in assay [2] (setting [6]) it was 80 to 100%.
For the compound `COc1ccnc(C(=O)N[C@@H](C)C(=O)O[C@@H](C)[C@@H](COCc2ccc(F)cc2)Cc2ccc(F)cc2)c1OC(C)=O` [compound 246], the pest or weed control at 121.5 g/ha in assay [1] (setting [3]) fell in the range of 80 to 100%; in assay [1] (setting [4]), 0 to 80%; in assay [2] (setting [5]), 0 to 80%; in assay [2] (setting [6]), 0 to 80%.
Consider `COc1ccnc(C(=O)N[C@@H](C)C(=O)O[C@@H](C)[C@H](Cc2ccc(F)cc2)C(C)(C)OCc2ccc(F)cc2)c1OC(C)=O` [compound 247], for which the pest or weed control at 121.5 g/ha in assay [1] (setting [3]), in assay [1] (setting [4]) and in assay [2] (setting [5]) was 0 to 80% each time.
For `COc1ccnc(C(=O)N[C@@H](C)C(=O)O[C@@H](C)[C@@H](COCCC(C)C)Cc2ccccc2)c1OC(C)=O` [compound 248], the pest or weed control at 121.5 g/ha in assay [1] (setting [4]) fell in the range of 0 to 80%; in assay [2] (setting [5]), 80 to 100%; in assay [2] (setting [6]), 0 to 80%.
As for `COc1ccnc(C(=O)N[C@@H](C)C(=O)O[C@@H](C)[C@@H](COCc2ccc(F)cc2)Cc2ccc(F)cc2)c1OCOC(C)=O` [compound 249], the pest or weed control at 121.5 g/ha in assay [1] (setting [3]) lay in the range of 80 to 100%; in assay [1] (setting [4]), 0 to 80%; in assay [2] (setting [5]), 80 to 100%; in assay [2] (setting [6]), 0 to 80%.
In the case of `COc1ccnc(C(=O)N[C@@H](C)C(=O)O[C@@H](C)[C@H](Cc2ccc(F)cc2)C(C)(C)OCc2ccc(F)cc2)c1OCOC(C)=O` [compound 250], the pest or weed control at 121.5 g/ha in assay [1] (setting [3]), in assay [2] (setting [5]) and in assay [2] (setting [6]) was 0 to 80% in each case.
As to `COc1ccnc(C(=O)N[C@@H](C)C(=O)O[C@@H](C)[C@@H](COCCC(C)C)Cc2ccc(F)cc2)c1OCOC(C)=O` [compound 251], the pest or weed control at 121.5 g/ha in assay [1] (setting [3]) is 0 to 80%; in assay [1] (setting [4]), 80 to 100%; in assay [2] (setting [5]), 80 to 100%; in assay [2] (setting [6]), 0 to 80%.
On to `COc1ccnc(C(=O)N[C@@H](C)C(=O)O[C@@H](C)[C@@H](COCCC(C)C)Cc2ccccc2)c1OCOC(C)=O` [compound 252], for which the pest or weed control at 121.5 g/ha in assay [1] (setting [3]), in assay [1] (setting [4]), in assay [2] (setting [5]) and in assay [2] (setting [6]) was 80 to 100% each time.
In the case of `CCOCC(=O)OCOc1c(OC)ccnc1C(=O)N[C@@H](C)C(=O)O[C@@H](C)[C@@H](COCc1ccc(F)cc1)Cc1ccc(F)cc1` [compound 253], the pest or weed control at 121.5 g/ha in assay [1] (setting [3]) lay within 80 to 100%; in assay [1] (setting [4]), 0 to 80%; in assay [2] (setting [5]), 80 to 100%; in assay [2] (setting [6]), 0 to 80%.
For the compound `COc1ccnc(C(=O)N[C@@H](C)C(=O)O[C@@H](C)[C@H](Cc2ccccc2)C(C)(C)Oc2ccc(Cl)cc2Cl)c1OCOC(C)=O` [compound 254], the pest or weed control at 121.5 g/ha in assay [1] (setting [3]) was 80 to 100%; in assay [1] (setting [4]), 80 to 100%; in assay [2] (setting [5]), 80 to 100%; in assay [2] (setting [6]), 0 to 80%.
`C=C(C)[C@@H](Cc1ccccc1)[C@H](C)OC(=O)[C@H](C)NC(=O)c1nccc(OC)c1OCOC(C)=O` [compound 255]: the pest or weed control at 121.5 g/ha in assay [1] (setting [3]) was 0 to 80%; in assay [1] (setting [4]), 80 to 100%; in assay [2] (setting [5]), 80 to 100%; in assay [2] (setting [6]), 80 to 100%.
Consider `CCCOC(C)(C)[C@@H](Cc1ccc(OC)cc1)[C@H](C)OC(=O)[C@H](C)NC(=O)c1nccc(OC)c1OCOC(C)=O` [compound 257], for which the pest or weed control at 121.5 g/ha in assay [1] (setting [4]) lay within 0 to 80%; in assay [2] (setting [5]) it was 80 to 100%.
For the compound `CCCOC[C@@H](Cc1ccc(OC)c(Cc2ccccc2)c1)[C@H](C)OC(=O)[C@H](C)NC(=O)c1nccc(OC)c1OCOC(C)=O` [compound 258], the pest or weed control at 121.5 g/ha in assay [1] (setting [3]), in assay [1] (setting [4]), in assay [2] (setting [5]) and in assay [2] (setting [6]) was 0 to 80% in each case.
Turning to `CCCOC(C)(C)[C@@H](Cc1ccc(OC)c(Cc2ccccc2)c1)[C@H](C)OC(=O)[C@H](C)NC(=O)c1nccc(OC)c1OCOC(C)=O` [compound 259], the pest or weed control at 121.5 g/ha in assay [1] (setting [4]) and in assay [2] (setting [5]) was 0 to 80% throughout.
Take `COc1ccnc(C(=O)N[C@@H](C)C(=O)OC(C)C(Cc2ccccc2)Cc2ccccc2)c1OC(C)=O` (stereo partly drawn) [compound 260]: the pest or weed control at 121.5 g/ha in assay [1] (setting [3]) was 80 to 100%; in assay [1] (setting [4]), 0 to 80%; in assay [2] (setting [5]), 80 to 100%; in assay [2] (setting [6]) it was 0 to 80%.
Turning to `COc1ccnc(C(=O)N[C@H](C(=O)OC(C)C(Cc2ccccc2)Cc2ccccc2)C(C)C)c1OC(C)=O` (stereo partly drawn) [compound 261], the pest or weed control at 121.5 g/ha was in the range of 0 to 80% in assay [1] (setting [3]), 0 to 80% in assay [1] (setting [4]), 80 to 100% in assay [2] (setting [5]) and 0 to 80% in assay [2] (setting [6]).
Regarding `CC[C@H](NC(=O)c1nccc(OC)c1OC(C)=O)C(=O)OC(C)C(Cc1ccccc1)Cc1ccccc1` (stereo partly drawn) [compound 262], the pest or weed control at 121.5 g/ha in assay [1] (setting [3]) was in the range of 0 to 80%; in assay [2] (setting [5]) it was 80 to 100%; in assay [2] (setting [6]), 0 to 80%.
With `COc1ccnc(C(=O)N[C@@H](C)C(=O)OC(C)C(Cc2cccc(F)c2)Cc2cccc(F)c2)c1OC(C)=O` (stereo partly drawn) [compound 263], the pest or weed control at 121.5 g/ha in assay [1] (setting [3]), in assay [1] (setting [4]), in assay [2] (setting [5]) and in assay [2] (setting [6]) was 0 to 80% throughout.
As for `COc1ccnc(C(=O)N[C@@H](C)C(=O)OC(C)C(Cc2ccc(F)cc2)Cc2ccc(F)cc2)c1OC(C)=O` (stereo partly drawn) [compound 264], the pest or weed control at 121.5 g/ha in assay [1] (setting [3]) and in assay [2] (setting [5]) was 0 to 80% each time.
For the compound `COc1ccnc(C(=O)N[C@@H](C)C(=O)OC(C)C(Cc2ccccc2)Cc2ccccc2)c1OCOC(C)=O` (stereo partly drawn) [compound 265], the pest or weed control at 121.5 g/ha in assay [1] (setting [3]) is 80 to 100%; in assay [1] (setting [4]) it was 0 to 80%; in assay [2] (setting [5]) it was 80 to 100%; in assay [2] (setting [6]), 0 to 80%.
As for `COc1ccnc(C(=O)N[C@H](C(=O)OC(C)C(Cc2ccccc2)Cc2ccccc2)C(C)C)c1OCOC(C)=O` (stereo partly drawn) [compound 266], the pest or weed control at 121.5 g/ha in assay [1] (setting [3]) fell in the range of 0 to 80%; in assay [2] (setting [5]), 80 to 100%; in assay [2] (setting [6]) it was 0 to 80%.
